Test results reported in EP4818179A1, “PREPARATION FOR AND USE OF PYRIMIDO-THIOPYRANDIONE INHIBITOR FOR KRAS G12C MUTANT PROTEIN” (Ya Therapeutics Inc, priority 2024, dated 2025).

System: H358 (KRAS G12C mutant) cells
Assay: Tumor cell proliferation inhibition experiment (Cell Titer-Glo luminescent cell viability assay)
Settings: Homo sapiens, NCI-H358, 72 h, read-out: NCI-H538 IC50(nm)
Procedure: H358 (KRAS G12C mutant) cells were digested, centrifuged, and resuspended. Cell density was determined using a Scepter automated cell counter. The cells were diluted to a solution containing 44,000 cells per milliliter. The adjusted cell solution was added to 90 µL per well in a 96-well culture plate. The 96-well plate was placed in a 37°C, 5% CO2 incubator. After culturing the cells for 24 hours, different concentrations of the test compound were added. The cells were then cultured with the compound for 72 hours in the presence of 10% fetal bovine serum. The ATP content was measured using the Cell Titer-Glo luminescent cell viability assay kit (see manufacturer's instructions for details) to assess cell growth inhibition. In short, 30 µL of Cell Titer-Glo reagent was added to each well, and the plate was shaken for 10 minutes to induce cell lysis. The fluorescence signal was detected and recorded using a Fluoroskan Ascent FL (Thermo). The maximum signal value was obtained from cells treated with dimethyl sulfoxide for 72 hours. Minimum signal value was obtained from a single culture medium (zero cell count). Inhibition rate % = (maximum signal value - minimum signal value) / (maximum signal value - minimum signal value × 100%). Data was processed using GraphPadprism 5 software. IC50 values were calculated by fitting an S-shaped dose-response curve.

Row | IC50 | SMILES
1 | < 10 nM | C=CC(=O)N1CCN(c2nc(OC[C@@]34CCCN3C[C@H](F)C4)nc3c2CS(=O)(=O)C(c2nc(N)cc(C)c2C(F)(F)F)C3)C[C@@H]1CC#N (stereo partly drawn) [Compound 7, 2-((2S)-4-(7-(6-amino-4-methyl-3-(trifluoromethyl)pyridin-2-yl)-2-(((2R,7AS)-2-fluorotetrahydro-1H-pyrrolazin-7a(5H)-yl)methoxy)-6,6-dioxo-7,8-dihydro-5H-thiaran[4,3-d]pyrimidin-4-yl)-1-(acryloyl)pyrazin-2-yl)acetonitrile]
2 | < 10 nM | C=CC(=O)N1CCN(c2nc(OC[C@@]34CCCN3C[C@H](F)C4)nc3c2CS(=O)(=O)[C@H](c2nc(N)cc(C)c2C(F)(F)F)C3)C[C@@H]1CC#N [Compound 7A, 2-((2S)-4-((7S)-7-(6-amino-4-methyl-3-(trifluoromethyl)pyridin-2-yl)-2-(((2R,7AS)-2-fluorotetrahydro-1H-pyrrolazin-7a(5H)-yl)methoxy)-6,6-dioxo-7,8-dihydro-5H-thiaran[4,3-d]pyrimidin-4-yl)-1-(acryloyl)pyrazin-2-yl)acetonitrile]
3 | < 10 nM | C=CC(=O)N1CCN(c2nc(OC[C@@]34CCCN3C[C@H](F)C4)nc3c2CS(=O)(=O)[C@@H](c2nc(N)cc(C)c2C(F)(F)F)C3)C[C@@H]1CC#N [Compound 7B, 2-((2S)-4-((7R)-7-(6-amino-4-methyl-3-(trifluoromethyl)pyridin-2-yl)-2-(((2R,7AS)-2-fluorotetrahydro-1H-pyrrolazin-7a(5H)-yl)methoxy)-6,6-dioxo-7,8-dihydro-5H-thiaran[4,3-d]pyrimidin-4-yl)-1-(acryloyl)pyrazin-2-yl)acetonitrile]
4 | < 10 nM | C=C(F)C(=O)N1CCN(c2nc(OC[C@@]34CCCN3C[C@H](F)C4)nc3c2CS(=O)(=O)C(c2nc(N)cc(C)c2C(F)(F)F)C3)C[C@@H]1CC#N (stereo partly drawn) [Compound 8, 2-((2S)-4-(7-(6-amino-4-methyl-3-(trifluoromethyl)pyridin-2-yl)-2-(((2R,7AS)-2-fluorotetrahydro-1H-pyrrolazin-7a(5H)-yl)methoxy)-6,6-dioxo-7,8-dihydro-5H-thiaran[4,3-d]pyrimidin-4-yl)-1-(2-fluoroacryloyl)pyrazin-2-yl)acetonitrile]
5 | < 10 nM | C=C(F)C(=O)N1CCN(c2nc(OC[C@@]34CCCN3C[C@H](F)C4)nc3c2CS(=O)(=O)[C@H](c2nc(N)cc(C)c2C(F)(F)F)C3)C[C@@H]1CC#N [Compound 8A, 2-((2S)-4-((7S)-7-(6-amino-4-methyl-3-(trifluoromethyl)pyridin-2-yl)-2-(((2R,7AS)-2-fluorotetrahydro-1H-pyrrolazin-7a(5H)-yl)methoxy)-6,6-dioxo-7,8-dihydro-5H-thiaran[4,3-d]pyrimidin-4-yl)-1-(2-fluoroacryloyl)pyrazin-2-yl)acetonitrile]
6 | < 10 nM | C=C(F)C(=O)N1CCN(c2nc(OC[C@@]34CCCN3C[C@H](F)C4)nc3c2CS(=O)(=O)[C@@H](c2nc(N)cc(C)c2C(F)(F)F)C3)C[C@@H]1CC#N [Compound 8B, 2-((2S)-4-((7R)-7-(6-amino-4-methyl-3-(trifluoromethyl)pyridin-2-yl)-2-(((2R,7AS)-2-fluorotetrahydro-1H-pyrrolazin-7a(5H)-yl)methoxy)-6,6-dioxo-7,8-dihydro-5H-thiaran[4,3-d]pyrimidin-4-yl)-1-(2-fluoroacryloyl)pyrazin-2-yl)acetonitrile]
